Data set [1] concerns the target T1, PAR2 (Homo sapiens, UniProt P55085).
T1 construct: 16HBE14o- cells on E-plates in growth medium; endogenous in cells; host or cells: 16HBE14o- cells
T1 sequence (P55085 26-397): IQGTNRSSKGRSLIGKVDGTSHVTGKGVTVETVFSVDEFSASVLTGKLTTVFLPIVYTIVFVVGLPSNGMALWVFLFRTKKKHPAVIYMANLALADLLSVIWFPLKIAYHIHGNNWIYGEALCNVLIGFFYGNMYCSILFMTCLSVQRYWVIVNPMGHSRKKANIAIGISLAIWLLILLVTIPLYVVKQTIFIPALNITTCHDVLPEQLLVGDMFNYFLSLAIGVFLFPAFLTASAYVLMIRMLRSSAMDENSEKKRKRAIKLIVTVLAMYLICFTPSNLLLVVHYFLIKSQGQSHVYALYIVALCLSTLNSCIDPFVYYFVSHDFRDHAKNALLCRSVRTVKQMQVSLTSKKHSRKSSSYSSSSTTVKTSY
As to the kind of experiment: Ca2+ desensitization assay in 16HBE14o- cells with 2at-LIGRL-NH2. The class given is cell-based. To be noted: compound at its activating concentration, ATP 5 µM. The method, then: 16HBE14o- cells or CHO cells were loaded with fura 2-acetomethoxyl ester (CalBiochem or Molecular Probes) for 30 min at room temperature. Cells were washed with HBSS and allowed to sit for at least 20 min prior to digital imaging. For activation and desensitization assay experiments using 16HBE14o- cells, [Ca^2+]i was measured as previously described. Experiments consisted of 20 sec of recording of cells in HBSS to determine resting [Ca^2+]i, followed by a 10 sec wash to introduce ligand and up to 10 min of recording for ligand washes required for desensitization experiments. Briefly, fura-2 fluorescence was observed on an Olympus IX70 microscope with a 40X oil immersion objective after alternating excitation between 340 and 380 nm by a 75 W Xenon lamp linked to a Delta Ram V illuminator (PTI) and a gel optic line. Intracellular Ca^2+ concentration ([Ca^2+]i) for each individual cell in the field of view was calculated by ratiometric analysis of fura-2 fluorescence using equations originally published in [31]. Individual ratios were calculated every sec throughout the experiments. […] Percent activation graphs are determined from 3–6 experiments for each ligand concentration. […] Ca^2+ imaging of CHO cells was similar; each ligand concentration tested included at least 3 experiments and a minimum of 200 cells analyzed during each experiment. […]

Data set [2] deals with T2, MrgprC11 (Mus musculus, UniProt Q8CIP3).
T2 construct: An MrgprC11 cDNA in pcDNA3.1 vector was transfected into CHO cells; expressed in transfected cells; host or cells: CHO cells, transient transfection with Lipofectamine 2000
T2 sequence (Q8CIP3 1-322): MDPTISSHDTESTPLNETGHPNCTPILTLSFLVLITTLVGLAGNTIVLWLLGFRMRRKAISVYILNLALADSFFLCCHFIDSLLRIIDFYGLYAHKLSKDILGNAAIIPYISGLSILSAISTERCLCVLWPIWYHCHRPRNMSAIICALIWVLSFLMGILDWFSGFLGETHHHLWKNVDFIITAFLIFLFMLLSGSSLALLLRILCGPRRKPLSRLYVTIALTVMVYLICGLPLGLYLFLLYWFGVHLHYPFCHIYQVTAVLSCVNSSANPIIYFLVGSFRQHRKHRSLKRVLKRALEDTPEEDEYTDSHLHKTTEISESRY
On the set-up: method as in PMID 21775281. As to conditions: cited from earlier work.

On the set-up of data set [3]: method as in PMID 20873792. To be noted: at high concentrations (100 µM); cited from earlier work.
The target of data set [4] is T1, PAR2. On the set-up: method as in PMID 21467041. As to conditions: 16HBE14o- cells; read-out: RTCA EC50; cited from earlier work.
In data set [5] the target is T2, MrgprC11. Description: Ca2+ response in MrgprC11 transfected CHO cells. The class given is cell-based. On the procedure:
CHO cells were cultured in DMEM supplemented with 10% FBS and 1% penicillin and streptomycin at 37°C in a 5% CO2 atmosphere. One day before transfection, CHO cells were plated in a 60 mm cell culture dish at a concentration of 1×10^5 cells/cm^2 and grown without antibiotics. An MrgprC11 cDNA in pcDNA3.1 vector was transfected into CHO cells using Lipofectamine™ 2000 (Invitrogen) prior to transfer to coverslips for experiments. Coverslips were coated with 0.1 mg/ml poly-D-lysine (from 2 mg/ml stock) and incubated for 1 hr at room temperature, after which the coating solution was removed and the coverslips were washed twice with double distilled water. CHO cells were seeded on coverslips at a concentration of 1×10^5 cells/cm^2 6 hr after transfection. Transfected cells were incubated for 24 hr prior to Ca^2+ imaging.
16HBE14o- cells or CHO cells were loaded with fura 2-acetomethoxyl ester (CalBiochem or Molecular Probes) for 30 min at room temperature. Cells were washed with HBSS and allowed to sit for at least 20 min prior to digital imaging. For activation and desensitization assay experiments using 16HBE14o- cells, [Ca^2+]i was measured as previously described. Experiments consisted of 20 sec of recording of cells in HBSS to determine resting [Ca^2+]i, followed by a 10 sec wash to introduce ligand and up to 10 min of recording for ligand washes required for desensitization experiments. Briefly, fura-2 fluorescence was observed on an Olympus IX70 microscope with a 40X oil immersion objective after alternating excitation between 340 and 380 nm by a 75 W Xenon lamp linked to a Delta Ram V illuminator (PTI) and a gel optic line. Intracellular Ca^2+ concentration ([Ca^2+]i) for each individual cell in the field of view was calculated by ratiometric analysis of fura-2 fluorescence using equations originally published in [31]. Individual ratios were calculated every sec throughout the experiments. [Ca^2+]i traces over time are averaged [Ca^2+]i of all cells within a field of view (80–120) and are representative of at least 3 experiments. Cells were considered activated by the ligand if their resting [Ca^2+]i was increased above a 200 nM threshold, a 2–4 fold increase above typical resting values. Percent activation graphs are determined from 3–6 experiments for each ligand concentration. Time to threshold in individual cells represent between 200–400 cells from at least 3 experiments at each ligand concentration. Ca^2+ imaging of CHO cells was similar; each ligand concentration tested included at least 3 experiments and a minimum of 200 cells analyzed during each experiment.

In the case of `Nc1ncnc2c1ncn2[C@@H]1O[C@H](COP(=O)(O)OP(=O)(O)OP(=O)(O)O)[C@@H](O)[C@H]1O` [ATP], the “Ca2+ response after PAR2 desensitization with 50 µM 2at-LIGRL-NH2” value at PAR2 [1] was “remained an effective agonist”.

As for SLIGR-NH2, on MrgprC11 [2], the MrgprC11 signaling result is “lost MrgprC11 signaling capacity”.

For the compound `CCC(C)C(NC(=O)C(CC1CCCCC1)NC(=O)c1ccno1)C(N)=O` (stereo not drawn) [Compound 5io-Cha-I-NH2], the solubility result in data set [3] is reported as “lack of solubility”.

As for 6-aminonicotinyl-LIGRL-NH2, on PAR2 [4], the EC50 was 430 nM.

For the compound 2at-LIGRL-NH2 [reference compound], at PAR2 [1], the “Ca2+ response after PAR2 desensitization with 50 µM 2at-LIGRL-NH2” value was “did not result in an increase of [Ca^2+]i”. Besides, at PAR2 [4], the EC50 was 310 nM. Besides, the “Ca2+ response (% of cells)” value at MrgprC11 [5] (1 µM) is recorded as “no response”; on MrgprC11 [5] (10 µM), 10%.

Turning to SLIGRL-NH2 (H-SLIGRL-NH2), in the data set with MrgprC11 [2] (read-out: MrgprC11 activation EC50), the EC50 is 10 µM.

Source of the values: PMC4057235, “Development and Evaluation of Small Peptidomimetic Ligands to Protease-Activated Receptor-2 (PAR2) through the Use of Lipid Tethering” (PLoS ONE, 2014).
